Results: patent EP4817688A2, “DEGRADING PKCß1 TO TREAT CANCER” (Mayo Foundation for Medical Education and Research, priority 2020, dated 2022)
pIC50: −log10 of the molar value.

Experiments:
Type in all cases: cell-based
MDAMB231 cells = assay: crystal violet (CV) proliferation assay, MDAMB231; details: Homo sapiens, MDA-MB-231, MDAMB231 (PKCβ1^high, Rb^positive) 2000 cells
Procedure: (§1) Cell proliferation rates were determined using crystal violet assays. One thousand cells per well were plated in 96 well tissue culture plates and treated the following day with a bifunctional compound or control for 7 days in replicates of 8. Cells were fixed with 25% glutaraldehyde for 10 minutes with shaking, washed 5 times with distilled water, stained with a 1% crystal violet solution (solubilized in 25% methanol) for 10 minutes, washed again 5 times and allowed to dry. De-staining was performed using […] sodium citrate in 50% ethanol followed by quantification using a 96 well spectrophotometer set at an absorbance of 550 nm.

BT549 cells = assay: crystal violet (CV) proliferation assay, BT549; details: Homo sapiens, BT-549, BT549 (PKCβ1^high, Rb^regative) 2000 cells
Procedure: as §1

MDAMB436 cells = assay: crystal violet (CV) proliferation assay, MDAMB436; details: Homo sapiens, MDA-MB-436, MDAMB436 (PKCβ1^low, Rb^negative) 2000 cells
Procedure: as §1

MDAH-2774 cells = assay: crystal violet (CV) proliferation assay, MDAH-2774; details: Homo sapiens; MDAH-2774 (PKCβ1^high) 1000 cells/well; read-out: Approximate IC50
Procedure: as §1
(§2) Based on the potent anti-proliferative activity of ENDX-PROTACs TC-Pr-006, TC-Pr-007, TC-Pr -008, and TC-Pr -009 in TNBC cells, the efficacy of these compounds for inhibiting the growth of ovarian cancer cells was tested. This analysis utilized KURAMOCHI cells, which represent the high-grade serous subtype (the most malignant form that accounts for 70% of all ovarian cancers and associates with poor clinical outcome) and MDAH-2774 cells, which represent endometrioid ovarian cancer and accounts for 20% of all ovarian cancer. PKCβ1 was confirmed to be expressed in both ovarian cancer cell line models, with MDAH-2774 cells expressing higher amounts of PKCβ1 compared to KURAMOCHI cells (FIG. 5A). […]

KURAMOCHI cells = assay: crystal violet (CV) proliferation assay, KURAMOCHI; details: KURAMOSHI (PKCβ1^low) 1000 cells/well; read-out: Approximate IC50
Procedure: as §1, §2

CC/C(=C(\c1ccc(O)cc1)c1ccc(OCCNC)cc1)c1ccccc1 [ENDX, endoxifen, reference compound]
pIC50 (MDAMB231 cells): < 5.30 | pIC50 (BT549 cells): < 5.30 | pIC50 (MDAMB436 cells): < 5.30 | pIC50 (MDAH-2774 cells): < 5.00 | pIC50 (KURAMOCHI cells): < 5.00
